The record followed here is patent US7582068B2, “Occlusion resistant hydrocephalic shunt” (Medtronic, Inc., priority 2004, dated 2009).

This test relates to tissue in-growth of the catheter lumen. The experiment in a line: Tissue in-growth scoring of catheters explanted from rats after 3 months (SEM). The format is in vivo, rat. The settings on record: peritoneal and ventricular catheters in rats, MPA compared to drug-free control, dual drug compared to single drug loading. Here is the method: Micophenolic acid (MPA) was loaded into ventricular and peritoneal catheter, design of which is described in the example 16. MPA was loaded into ventricular catheter by solvent impregnation using 50 mg/ml MPA in THF followed by drug loading into a silicone plug with 10 wt % drug concentration. Peritoneal sample was loaded by solvent impregnation using 12.5 mg/ml MPA solution in THF followed by drug loading into a plug using 2.5 mg/ml MPA in silicone rubber. Samples were implanted into rat such that the ventricular sample was placed in a lateral ventricle of the rat and the peritoneal samples was implanted into rat peritoneal cavity. In total 6 ventricular and 6 peritoneal samples were implanted into 6 rats. 12 drug-free catheters of the same configuration were implanted in the other 6 rats as controls. After 3 months samples were explanted and the tissue in-growth was scored between 1 and 5 on a basis of SEM photographs of longitudinally split catheters. […]
Ventricular and peritoneal samples were loaded with RAPA and MPA according to the following procedure: catheters were impregnated with 50 mg/ml of MPA solution in THF followed by plugging with 5 wt % RAPA in silicone Samples were implanted in rats and analyzed as described in the Example 17.

With `COc1c(C)c2c(c(O)c1C/C=C(\C)CCC(=O)O)C(=O)OC2` [MPA, Mycophenolic acid], the “Effect on tissue proliferation (in words)” value is given as “decrease of tissue proliferation”.
